Measurements reported in patent US8664257B2, “Oxygen-substituted 3-heteroaroylamino-propionic acid derivatives and their use as pharmaceuticals” (Sanofi, priority 2010, dated 2014).
pIC50: −log10 of the molar value.

What follows are compounds tested against T1, Recombinant human cathepsin A (Homo sapiens, UniProt P10619) (assay: Cathepsin A inhibitory activity). Settings: read-out: Activity (2): Cathepsin A inhibitory activity (IC50 class).
T1 construct: Recombinant human cathepsin A (residues 29-480, with a C-terminal 10-His tag); 10-His (C); purchased R&D Systems 1049-SE
T1 sequence (P10619 29-312 limits assumed): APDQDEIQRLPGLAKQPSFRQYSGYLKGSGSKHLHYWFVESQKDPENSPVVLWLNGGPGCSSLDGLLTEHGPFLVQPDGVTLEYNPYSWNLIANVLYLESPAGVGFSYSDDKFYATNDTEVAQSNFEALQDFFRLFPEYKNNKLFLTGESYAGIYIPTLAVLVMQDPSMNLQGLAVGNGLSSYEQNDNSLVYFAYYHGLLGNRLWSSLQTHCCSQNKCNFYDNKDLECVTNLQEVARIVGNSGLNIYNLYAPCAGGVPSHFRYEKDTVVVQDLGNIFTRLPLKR
T1 sequence (P10619 327-480 limits assumed): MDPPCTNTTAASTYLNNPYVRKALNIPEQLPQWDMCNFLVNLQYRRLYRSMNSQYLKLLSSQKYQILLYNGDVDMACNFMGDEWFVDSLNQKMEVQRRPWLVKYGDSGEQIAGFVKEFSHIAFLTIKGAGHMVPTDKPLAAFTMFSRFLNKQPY
Format: biochemical
Summary of the method: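 Human cathepsin A (res. 29-480, C-His10) pre-activated with cathepsin L (MES pH 6.0, DTT, 15 min, 37 °C; quenched with 10 μM E-64). Enzyme (833 ng/ml) preincubated 15 min RT with compound in MES pH 5.5/DTT, then 2 μM Bodipy FL-bradykinin for 15 min RT. Capillary electrophoresis product/substrate peak areas; IC50 from % inhibition.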

Structure (SMILES)	pIC50
O=C(O)CC(NC(=O)c1cc(O)n(-c2ccccc2Cl)n1)c1ccc(-c2ccccc2F)cc1 (stereo not shown) [Example 585, 3-{[1-(2-Chloro-phenyl)-5-hydroxy-1H-pyrazole-3-carbonyl]-amino}-3-(2′-fluoro-biphenyl-4-yl)-propionic acid]	6.00 to 7.00
Cc1ccccc1[C@H](CC(=O)O)NC(=O)c1cc(O)n(-c2cc(F)cc(F)c2)n1 [Example 586]	6.00 to 7.00
O=C(O)CC(NC(=O)c1cc(O)n(-c2cc(F)cc(F)c2)n1)c1ccc(-c2ccc(F)cc2)cc1 (stereo not shown) [Example 587]	4.52 to 6.00
Cc1ccccc1[C@H](CC(=O)O)NC(=O)c1cc(O)n(-c2c(F)cccc2F)n1 [Example 588]	6.00 to 7.00
Cc1ccccc1[C@H](CC(=O)O)NC(=O)c1cc(O)n(-c2cccc(Cl)c2F)n1 [Example 589]	6.00 to 7.00
O=C(O)CC(NC(=O)c1cc(O)n(-c2cccc(Cl)c2F)n1)c1ccc(-c2ccc(F)cc2)cc1 (stereo not shown) [Example 590]	6.00 to 7.00
O=C(O)CC(NC(=O)c1cc(O)n(-c2ccccc2Cl)n1)c1ccc(-c2ccccc2Cl)cc1 (stereo not shown) [Example 591]	6.00 to 7.00
Cc1ccccc1C(CC(=O)O)NC(=O)c1nn(-c2ccccc2F)c(O)c1C (stereo not shown) [Example 592]	6.00 to 7.00
COc1c(Cl)c(C(=O)N[C@@H](CC(=O)O)c2ccccc2C)nn1-c1ccccc1F [Example 593]	6.00 to 7.00
COc1c(Br)c(C(=O)N[C@@H](CC(=O)O)c2ccccc2C)nn1-c1ccccc1F [Example 594]	> 7.00
COc1c(F)c(C(=O)N[C@@H](CC(=O)O)c2ccccc2C)nn1-c1ccccc1F [Example 595]	> 7.00
COc1cc(C(=O)N[C@@H](CC(=O)O)c2cccc(Cl)c2Cl)nn1-c1ccccc1 [Example 596]	> 7.00
COc1cc(C(=O)NC(CC(=O)O)c2ccc(-c3ccccn3)cc2)nn1-c1ccccc1 (stereo not shown) [Example 597, 3-[(5-Methoxy-1-phenyl-1H-pyrazole-3-carbonyl)-amino]-3-(4-pyridin-2-yl-phenyl)-propionic acid]	6.00 to 7.00
COc1cc(C(=O)NC(CC(=O)O)c2ccc(-c3ccccn3)cc2)nn1-c1ccccc1F (stereo not shown) [Example 598]	> 7.00
Cc1ccccc1[C@H](CC(=O)O)NC(=O)c1cc(O)n(-c2cc(F)ccc2F)n1 [Example 599]	> 7.00
CS(=O)(=O)c1ccc(C(CC(=O)O)NC(=O)c2cc(O)n(-c3ccccc3)n2)cc1 (stereo not shown) [Example 600]	4.52 to 6.00
Cc1ccccc1[C@H](CC(=O)O)NC(=O)c1cc(O)n(-c2cccc(S(N)(=O)=O)c2)n1 [Example 601]	6.00 to 7.00
Cc1ccccc1[C@H](CC(=O)O)NC(=O)c1cc(O)n(-c2ccc(S(N)(=O)=O)cc2)n1 [Example 602]	4.52 to 6.00
CS(=O)(=O)c1ccc(C(CC(=O)O)NC(=O)c2cc(O)n(-c3ccccc3F)n2)cc1 (stereo not shown) [Example 603, 3-{[1-(2-Fluoro-phenyl)-5-hydroxy-1H-pyrazole-3-carbonyl]-amino}-3-(4-methanesulfonyl-phenyl)-propionic acid]	4.52 to 6.00
COc1c(C)c(C(=O)NC(CC(=O)O)c2ccccc2C)nn1-c1ccccc1F (stereo not shown) [Example 605]	4.52 to 6.00
NS(=O)(=O)c1cccc(-n2nc(C(=O)NC(CC(=O)O)c3ccc(-c4ccc(F)cc4)cc3)cc2O)c1 (stereo not shown) [Example 606]	6.00 to 7.00
Cc1ccccc1[C@H](CC(=O)O)NC(=O)c1cc(O)n(-c2ccccc2S(C)(=O)=O)n1 [Example 607]	4.52 to 6.00
COc1cc(C(=O)N[C@@H](CC(=O)O)c2ccccc2C)nn1-c1ccccc1Cl [Example 608]	6.00 to 7.00
COc1cc(C(=O)N[C@@H](CC(=O)O)c2ccccc2C)nn1-c1cccc(F)c1 [Example 609]	> 7.00
COc1cc(C(=O)N[C@@H](CC(=O)O)c2ccccc2C)nn1-c1cc(F)ccc1F [Example 610]	> 7.00

Structure (SMILES)	pIC50
COc1cc(C(=O)N[C@@H](CC(=O)O)c2ccccc2C)nn1C(C)(C)C [Example 611]	6.00 to 7.00
Cc1ccccc1[C@H](CC(=O)O)NC(=O)c1cc(OCC2CC2)n(-c2ccccc2F)n1 [Example 612]	> 7.00
Cc1ccccc1[C@H](CC(=O)O)NC(=O)c1cc(OC(=O)N2CCCC2)n(-c2ccccc2F)n1 [Example 613, Pyrrolidine-1-carboxylic acid 5-((S)-2-carboxy-1-o-tolyl-ethylcarbamoyl)-2-(2-fluoro-phenyl)-2H-pyrazol-3-yl ester]	> 7.00
Cc1ccccc1[C@H](CC(=O)O)NC(=O)c1cc(OC(=O)N(C)C)n(-c2ccccc2F)n1 [Example 614]	> 7.00
Cc1ccccc1[C@H](CC(=O)O)NC(=O)c1cc(OCC(=O)N(C)C)n(-c2ccccc2F)n1 [Example 615]	> 7.00
Cc1ccccc1[C@H](CC(=O)O)NC(=O)c1cc(OCC(=O)N2CCCC2)n(-c2ccccc2F)n1 [Example 616]	> 7.00
COCCOc1cc(C(=O)N[C@@H](CC(=O)O)c2ccccc2C)nn1-c1ccccc1F [Example 617]	> 7.00
Cc1ccccc1[C@H](CC(=O)O)NC(=O)c1cc(OC(=O)N2CCCCC2)n(-c2ccccc2F)n1 [Example 619]	> 7.00
Cc1ccccc1[C@H](CC(=O)O)NC(=O)c1cc(OC(=O)N(C)c2ccccc2)n(-c2ccccc2F)n1 [Example 620]	> 7.00
CCOc1cc(C(=O)N[C@@H](CC(=O)O)c2ccccc2C)nn1-c1ccccc1 [Example 621]	> 7.00
Cc1ccccc1[C@H](CC(=O)O)NC(=O)c1cc(OCC2CC2)n(-c2ccccc2)n1 [Example 622]	> 7.00
Cc1ccccc1[C@H](CC(=O)O)NC(=O)c1cc(OCc2ccccc2C(F)(F)F)n(-c2ccccc2F)n1 [Example 623]	6.00 to 7.00
Cc1ccccc1[C@H](CC(=O)O)NC(=O)c1cc(OCc2cccc(C(F)(F)F)c2)n(-c2ccccc2F)n1 [Example 624]	6.00 to 7.00
Cc1ccccc1[C@H](CC(=O)O)NC(=O)c1cc(OCCc2ccccc2)n(-c2ccccc2F)n1 [Example 625]	> 7.00
Cc1ccccc1[C@H](CC(=O)O)NC(=O)c1cc(OC2CCCC2)n(-c2ccccc2F)n1 [Example 626]	> 7.00
Cc1ccccc1[C@H](CC(=O)O)NC(=O)c1cc(OCC2CCOCC2)n(-c2ccccc2F)n1 [Example 627]	> 7.00
Cc1ccccc1[C@H](CC(=O)O)NC(=O)c1cc(OCCc2c(C)noc2C)n(-c2ccccc2F)n1 [Example 628]	> 7.00
Cc1ccccc1[C@H](CC(=O)O)NC(=O)c1cc(OCc2ccncc2)n(-c2ccccc2F)n1 [Example 629]	> 7.00
Cc1ccccc1[C@H](CC(=O)O)NC(=O)c1cc(OC(C)C)n(-c2ccccc2F)n1 [Example 630]	> 7.00
Cc1ccccc1[C@H](CC(=O)O)NC(=O)c1cc(OC2CCCCC2)n(-c2ccccc2F)n1 [Example 631]	> 7.00
Cc1ccccc1[C@H](CC(=O)O)NC(=O)c1cc(OCC(C)(C)C)n(-c2ccccc2F)n1 [Example 632]	> 7.00
Cc1ccccc1[C@H](CC(=O)O)NC(=O)c1cc(OCC2CC2)n(-c2c(F)cccc2F)n1 [Example 634]	> 7.00
Cc1ccccc1[C@H](CC(=O)O)NC(=O)c1cc(OCc2ccccc2C#N)n(-c2ccccc2F)n1 [Example 635, (S)-3-{[5-(2-Cyano-benzyloxy)-1-(2-fluoro-phenyl)-1H-pyrazole-3-carbonyl]-amino}-3-o-tolyl-propionic acid]	> 7.00
Cc1ccc([C@H](CC(=O)O)NC(=O)c2cc(OCC(C)(O)c3ccccc3)n(-c3ccccc3F)n2)cc1 (stereo partly shown) [Example 636]	> 7.00
